Experimental data from patent publication US7629453B2, “NF-κB activating gene” (Asahi Kasei Pharma Corporation, priority 2000, dated 2009).
Strand notation (5' to 3'): a small letter for the sugar, then the base; units joined by * are phosphorothioate-linked, units joined directly phosphodiester-linked; [ ] holds rarer units or linkages, { } end groups; capitals alone tell only the bases. Where a SMILES comes first, the peptide text is derived from it. The star is where a group is joined. Cbz = O=C(OCc1ccccc1)*; d = 2'-deoxy (DNA); r = 2'-OH (RNA)

Columns and labels:
Assay type in all cases: cell-based
gene of SEQ ID NO:88 [1] = assay: Expression inhibition of the gene of SEQ ID NO:88 by double stranded nucleic acid (NF-κB luciferase reporter, EBNA cells); details: for relative luciferase activity (%): 10 pmol per well, 24 hours, firefly standardized with Renilla, control without double stranded nucleic acid = 100%; for luciferase activity / expression of the protein of SEQ ID NO: 87 (in words): EBNA cells, Lipofectamine 2000, versus cells without double stranded nucleic acid
Experimental: That is, using Lipofectamine 2000 (Invitrogen), an expression vector having the polynucleotide of SEQ ID NO:88, pNFkB-Luc, phRL-TK vector and double stranded nucleic acid (A) were co-transfected into EBNA cells, and after culturing, luciferase activity was measured.
EBNA cells (Invitrogen) were inoculated on DMEM medium containing 5% FBS in a 96-well cell culture plate to a cell density of 1.2×10^4 cells/100 μl/well, and cultured for 24 hours at 37° C. in the presence of 5% CO2. Next, using Lipofectamine 2000 (Invitrogen), 50 ng of an expression vector having the polynucleotide of SEQ ID NO:88 and 50 ng of pNFkB-Luc (STRATAGENE) and 10 ng of phRL-TK vector (Promega Corporation) used as an internal standard, were co-transfected with double stranded nucleic acid 88-1 (10 pmol) prepared in (1) above into 1 well. After culturing for 24 hours at 37° C., firefly luciferase activity and Renilla reniformis luciferase activity were measured using a Dual-Luciferase Reporter Assay System (Promega Corporation). Further, each of 88-2 (10 pmol), 88-3 (10 pmol), 88-4 (10 pmol), 88-5 (10 pmol) or 88-6 (10 pmol) was co-transfected into 1 well in place of 88-1 (10 pmol), and luciferase activity was measured in the same manner. In Table 1, values for activity represent relative values when firefly luciferase activity in the control experiment (cells into which double stranded nucleic acid has not been introduced) is established as 100%. (It should be noted that values for firefly luciferase activity were standardized with values for Renilla reniformis luciferase activity used as an internal standard, before using these values in calculations.)

gene of SEQ ID NO:88 [2] = assay: as above; details: Lipofectamine 2000, versus cells without double stranded nucleic acid
NF-κB activation = assay: NF-κB reporter activity inhibition by proteasome inhibitor in 293-EBNA cells cotransfected with NF-κB activating protein expression vector and pNFκB-Luc; details: MG-132 0.1, 0.5, 1.0 and 10 μM added 1 hour after transfection; 293-EBNA cells with vector for protein of SEQ ID NO: 5, 9, 17 ... 178; 24 hours
Experimental: 293-EBNA cells were seeded on 5% FBS containing DMEM medium in a 96-well cell culture plate to a final cell density of 1×10^4 cells/100 μl/well, and cultured for 24 hours at 37° C. in the presence of 5% CO2. Then, 50 ng of the expression vector comprising the gene encoding NF-κB activating protein of SEQ ID NO: 5, 9, 17, 21, 35, 37, 41, 53, 57, 63, 67, 71, 75, 81, 87, 91, 93, 97, 121, 123, 129, 154, 158, 162, 168, 170, 172, 176 or 178, and 50 ng of the reporter plasmid pNF κB-Luc were cotransfected into the cells in a well using FuGENE 6. After 1 hour, the proteasome inhibitor MG-132 (purchased form CALBIOCHEM) (Uehara T. et al., J. Biol. Chem. 274, p. 15875-15882 (1999); Wang X. C. et al., Invest. Ophathalmol. Vis. Sci. 40, p. 477-486) was added to the culture to final concentrations of 0.1 μM, 0.5 μM, 1.0 μM and 10 μM, respectively. After 24 hours of culture at 37° C., the reporter activity was measured using PIKKA GENE LT2.0.

Compound	relative luciferase activity (%) (gene of SEQ ID NO:88 [1])	luciferase activity / expression of the protein of SEQ ID NO: 87 (in words) (gene of SEQ ID NO:88 [1])	further results
88-1: double stranded nucleic acid annealed from oligonucleotides A1 (SEQ ID NO: 185) and B1 (SEQ ID NO: 186), targeting SEQ ID NO: 88 (chain 1 rGrUrCrCrArGrGrArUrArUrCrArUrGrArGrUrCdTdT; chain 2 rGrArCrUrCrArUrGrArUrArUrCrCrUrGrGrArCdTdT; siRNA)	18%	exhibited inhibition of firefly luciferase activity	luciferase activity / expression of the protein of SEQ ID NO: 87 (in words) (gene of SEQ ID NO:88 [2]): markedly lower
88-2: double stranded nucleic acid annealed from oligonucleotides A2 (SEQ ID NO: 187) and B2 (SEQ ID NO: 188) (chain 1 rGrArArGrUrCrUrGrArArGrArUrCrUrArUrCrCdTdT; chain 2 rGrGrArUrArGrArUrCrUrUrCrArGrArCrUrUrCdTdT; siRNA)	12%	exhibited inhibition of firefly luciferase activity	luciferase activity / expression of the protein of SEQ ID NO: 87 (in words) (gene of SEQ ID NO:88 [2]; listed as (B)): similarly inhibited
88-3: double stranded nucleic acid annealed from oligonucleotides A3 (SEQ ID NO: 189) and B3 (SEQ ID NO: 190) (chain 1 rGrCrUrGrArArGrArArGrArGrGrUrGrUrUrCrCdTdT; chain 2 rGrGrArArCrArCrCrUrCrUrUrCrUrUrCrArGrCdTdT; siRNA)	9%	exhibited inhibition of firefly luciferase activity	luciferase activity / expression of the protein of SEQ ID NO: 87 (in words) (gene of SEQ ID NO:88 [2]; listed as (C)): similarly inhibited
88-4: double stranded nucleic acid annealed from oligonucleotides A4 (SEQ ID NO: 191) and B4 (SEQ ID NO: 192) (chain 1 rGrArUrGrArCrArCrArGrArUrGrArArGrCrCrCdTdT; chain 2 rGrGrGrCrUrUrCrArUrCrUrGrUrGrUrCrArUrCdTdT; siRNA)	8%	exhibited inhibition of firefly luciferase activity	luciferase activity / expression of the protein of SEQ ID NO: 87 (in words) (gene of SEQ ID NO:88 [2]; listed as (D)): similarly inhibited
88-5: double stranded nucleic acid annealed from oligonucleotides A5 (SEQ ID NO: 193) and B5 (SEQ ID NO: 194) (chain 1 GCCCUCAGAGUCCAGAAUCTT; chain 2 GAUUCUGGACUCUGAGGGCTT; siRNA; sugars from the 5' end r19 d2, backbone not given here)	5%	exhibited inhibition of firefly luciferase activity	luciferase activity / expression of the protein of SEQ ID NO: 87 (in words) (gene of SEQ ID NO:88 [2]): similarly inhibited
88-6: double stranded nucleic acid annealed from oligonucleotides A6 (SEQ ID NO: 195) and B6 (SEQ ID NO: 196) (chain 1 GAUGACUUUGGUAUCAAACTT; chain 2 GUUUGAUACCAAAGUCAUCTT; siRNA; sugars from the 5' end r19 d2, backbone not given here)	7%	exhibited inhibition of firefly luciferase activity	luciferase activity / expression of the protein of SEQ ID NO: 87 (in words) (gene of SEQ ID NO:88 [2]; listed as (F)): similarly inhibited
CC(C)C[C@@H](C=O)NC(=O)[C@H](CC(C)C)NC(=O)[C@H](CC(C)C)NC(=O)OCc1ccccc1 [MG132, MG-132] (Cbz-Leu-Leu-Leu-aldehyde)	–	–	expression of the reporter gene (NF-κB reporter activity) (NF-κB activation): inhibited the expression of the reporter gene
